This data set is described as follows: Solubility limit of the solid (second) organic solvent in the liquid (first) organic solvent. It is filed as physicochemical. The note with it: dissolved at 40°C, stability on standing up to a week at 25°C. An excerpt:
The differences between the Hansen Solubility parameter Hd, Hp and Hh of the first and the second solvent can be realized individually or collectively. In a very preferred embodiment, at least two and more preferred all the differences between the Hansen Solubility parameter Hd, Hp and Hh of the first and the second solvent are commonly realized.

[1] abbreviates: in liquid solvent 3-Phenoxy toluene.

Take `C=C1CC[C@H]2O[C@]2(C)CC[C@@H]2[C@@H]1CC2(C)C` [Caryophyllene oxide]: the Solubility limit stood at 55% under setting [1], 60% (in liquid solvent α-Pinene oxide) and 35% (in liquid solvent β-Caryophyllene).
On to `O=C1CCCCCCCCCCCCCCO1` [ω-Pentadecalactone], for which the Solubility limit under setting [1] is more than 70%.

For the origin of these results see patent publication EP3390549B1, “FORMULATIONS CONTAINING A SOLID SOLVENT” (Merck Patent GmbH, priority 2015, dated 2017).
